Test results: the NIST ThermoML archive (doi:10.1021/je400839x)
Numbers after ± are expanded uncertainties.

Columns and labels:
[1] = for viscosity / speed of sound / mass density: 101 kPa, Liquid; for viscosity: Concentric cylinders viscometry; for speed of sound: Pulse-echo method; for mass density: Vibrating tube method
[2] = xn = mol fraction of the nth substance listed; settings: 101 kPa, Liquid, x2 = 0; for viscosity: Concentric cylinders viscometry; for mass density: Vibrating tube method

Row | SMILES | viscosity ([1]; 293.15 K) [mPa·s] | mass density ([1]; 293.15 K) [kg/m3] | viscosity ([1]; 303.15 K) [mPa·s] | mass density ([1]; 303.15 K) [kg/m3] | viscosity ([1]; 313.15 K) [mPa·s] | mass density ([1]; 313.15 K) [kg/m3] | viscosity ([1]; 323.15 K) [mPa·s] | mass density ([1]; 323.15 K) [kg/m3] | viscosity ([1]; 333.15 K) [mPa·s] | mass density ([1]; 333.15 K) [kg/m3] | viscosity ([1]; 343.15 K) [mPa·s] | mass density ([1]; 343.15 K) [kg/m3] | viscosity ([1]; 353.15 K) [mPa·s] | mass density ([1]; 353.15 K) [kg/m3] | viscosity ([1]; 363.15 K) [mPa·s] | mass density ([1]; 363.15 K) [kg/m3] | viscosity ([1]; 373.15 K) [mPa·s] | mass density ([1]; 373.15 K) [kg/m3] | further results
1 | CC(CC(C)(C)C)CC(C)(C)C [2,2,4,6,6-pentamethylheptane] | 1.29 ± 0.02 | 745.5 ± 0.6 | 1.1 ± 0.01 | 738.2 ± 0.6 | 0.941 ± 0.012 | 730.9 ± 0.6 | 0.827 ± 0.011 | 723.5 ± 0.6 | 0.726 ± 0.01 | 716.1 ± 0.6 | 0.643 ± 0.01 | 708.6 ± 0.6 | 0.573 ± 0.009 | 700.9 ± 0.5 | 0.515 ± 0.009 | 693.2 ± 0.5 | 0.467 ± 0.008 | 685.5 ± 0.5 | speed of sound ([1]; 293.15 K): 1204 ± 2.2 m/s; surface tension liquid-gas ([1]; 294 K, Pendant drop shape): 21.8 ± 0.4 mN/m; speed of sound ([1]; 303.15 K): 1164.9 ± 2.2 m/s; speed of sound ([1]; 313.15 K): 1126.7 ± 2.2 m/s; speed of sound ([1]; 323.15 K): 1089.3 ± 2.2 m/s
2 | CCCCCCCCCCCCCCCC [hexadecane] | 3.44 ± 0.02 | 773.7 ± 0.3 | 2.72 ± 0.02 | 766.8 ± 0.3 | 2.21 ± 0.02 | 759.9 ± 0.3 | 1.82 ± 0.01 | 752.9 ± 0.3 | 1.53 ± 0.01 | 746 ± 0.3 | 1.31 ± 0.01 | 739 ± 0.3 | 1.13 ± 0.01 | 731.9 ± 0.3 | 0.99 ± 0.009 | 724.8 ± 0.3 | 0.876 ± 0.009 | 717.7 ± 0.3 | –
3 | CCCCCCCCCCCCCCCC [hexadecane] + CC(CC(C)(C)C)CC(C)(C)C | – | – | – | – | – | – | – | – | – | – | – | – | – | – | – | – | – | – | viscosity ([2]; 293.15 K): 3.44 ± 0.02 mPa·s; mass density ([2]; 293.15 K): 773.7 ± 0.3 kg/m3; viscosity ([2]; 303.15 K): 2.72 ± 0.02 mPa·s; mass density ([2]; 303.15 K): 766.8 ± 0.3 kg/m3; viscosity ([2]; 313.15 K): 2.21 ± 0.02 mPa·s; mass density ([2]; 313.15 K): 759.9 ± 0.3 kg/m3; viscosity ([2]; 323.15 K): 1.82 ± 0.01 mPa·s; mass density ([2]; 323.15 K): 752.9 ± 0.3 kg/m3; viscosity ([2]; 333.15 K): 1.53 ± 0.01 mPa·s; mass density ([2]; 333.15 K): 746 ± 0.3 kg/m3; viscosity ([2]; 343.15 K): 1.31 ± 0.01 mPa·s; mass density ([2]; 343.15 K): 739 ± 0.3 kg/m3; viscosity ([2]; 353.15 K): 1.13 ± 0.01 mPa·s; mass density ([2]; 353.15 K): 731.9 ± 0.3 kg/m3; viscosity ([2]; 363.15 K): 0.99 ± 0.009 mPa·s; mass density ([2]; 363.15 K): 724.8 ± 0.3 kg/m3; viscosity ([2]; 373.15 K): 0.876 ± 0.009 mPa·s; mass density ([2]; 373.15 K): 717.7 ± 0.3 kg/m3
